This note sets out measurements from US5840684A, “Glycopeptide antibiotic derivatives” (Eli Lilly and Company, priority 1995, dated 1998).

SMILES strings stand for the structures. Converted amounts (≈) assume the structure as drawn.

Test [1] deals with vancomycin-resistant enterococci. The test is described as follows: broth micro-dilution, mean geometric MIC. It counts as cell-based, Enterococcus faecium and Enterococcus faecalis. The settings on record: enterococci, 24-hour incubation. For orientation: Dilution methods test growth across graded concentrations, often in twofold steps.
Test [2] deals with vancomycin-susceptible enterococci. The test can be described thus: broth micro-dilution, mean geometric MIC. The settings on record: enterococci, 24-hour incubation. It counts as cell-based, Enterococcus faecium and Enterococcus faecalis.
For test [3], the system named is Staphylococcus aureus SA1199B. It counts as cell-based. On the procedure: (§1) The MIC's were determined using a standard broth micro-dilution assay.
Test [4] concerns Staphylococcus aureus S13E. It counts as cell-based. On the procedure:
as §1

In test [5] the test system is Streptococcus pneumoniae P1. The test is described as follows: broth micro-dilution MIC. It counts as cell-based. As for the experimental part: (§2) The formula I compounds have in vitro and in vivo activity against Gram-positive pathogenic bacteria. The MIC's were determined using a standard broth micro-dilution assay.
The test system of test [6] is Staphylococcus epidermidis 270. The test can be described thus: broth micro-dilution MIC. It counts as cell-based. On the procedure: as §2
The subject of a further test is Entercoccus faecium 2041. The test can be described thus: broth micro-dilution MIC. Conditions: Entercoccus faecium 2041. It counts as cell-based. As for the experimental part:
as §2

Test [7] has as its system Staphylococcus haemolyticus 105. The test is described as follows: broth micro-dilution MIC. It counts as cell-based. On the procedure: as §2
Test [8] deals with Haemophilus influenzae RD. The test can be described thus: broth micro-dilution MIC. It counts as cell-based. Conditions: Haemophilus influenzae RD. As for the experimental part: as §2
The next test relates to Entercoccus faecium 180. The test can be described thus: broth micro-dilution MIC. It counts as cell-based. Conditions: Entercoccus faecium 180. As for the experimental part: as §2
The subject of test [9] is Staphylococcus haemolyticus 415. The test is described as follows: broth micro-dilution MIC. It counts as cell-based. As for the experimental part:
as §2

For test [10], the system named is Staphylococcus aureus X400. The test is described as follows: broth micro-dilution MIC. It counts as cell-based. On the procedure: as §1
In test [11] the test system is Staphylococcus aureus SA1199. The test can be described thus: broth micro-dilution MIC. It counts as cell-based. On the procedure: as §1
In test [12] the test system is Staphylococcus aureus 447. The test can be described thus: broth micro-dilution MIC. It counts as cell-based. On the procedure:
as §1

Test [13] relates to Staphylococcus aureus SA1199A. The test is described as follows: broth micro-dilution MIC. It counts as cell-based. On the procedure:
as §1

Test [14] has as its system Entercoccus faecium 180-1. The test is described as follows: broth micro-dilution MIC. It counts as cell-based. As for the experimental part: as §1
Test [15] has as its system Streptococcus pyogenes C203. The test can be described thus: broth micro-dilution MIC. It counts as cell-based. On the procedure:
as §1

In test [16] the test system is Staphylococcus aureus 446. The test is described as follows: broth micro-dilution MIC. It counts as cell-based. On the procedure: as §1
In test [17] the test system is Staphylococcus aureus 489. The test can be described thus: broth micro-dilution MIC. It counts as cell-based. On the procedure:
as §1

The test system of test [18] is Enterococcus gallinarum 245. The test can be described thus: broth micro-dilution MIC. It counts as cell-based. The settings on record: Enterococcus gallinarum 245. As for the experimental part: as §2
Another test has as its system Entercoccus faecium 276. The test is described as follows: broth micro-dilution MIC. It counts as cell-based. On the procedure: as §1
For test [19], the system named is Staphylococcus aureus X778. The test is described as follows: broth micro-dilution MIC. It counts as cell-based. On the procedure:
as §1

Regarding `CNC(CC(C)C)C(=O)NC1C(=O)NC(CC(N)=O)C(=O)NC2C(=O)NC3C(=O)NC(C(=O)NC(C(=O)O)c4cc(O)cc(O)c4-c4cc3ccc4O)C(OC3CC(C)(N)C(O)C(C)O3)c3ccc(c(Cl)c3)Oc3cc2cc(c3OC2OC(CO)C(O)C(O)C2OC2CC(C)(NCc3ccc(-c4ccc(O)cc4)cc3)C(O)C(C)O2)Oc2ccc(cc2Cl)C1O` (centres unmarked) [Compound 20], in test [1], the “mean geometric MIC, Vancomycin Resistant Strains” value amounted to 4.8 µg/mL. Also, the “mean geometric MIC, Vancomycin Sensitive Strains” value in [2] is 0.38 µg/mL. The MIC is 0.5 µg/mL (≈ 0.282 µM) in [3]; at most 0.06 µg/mL in test [4]; at most 0.06 µg/mL in test [5]; 2 µg/mL (≈ 1.13 µM) in test [6]; at most 0.06 µg/mL in the test on Entercoccus faecium 2041; 8 µg/mL (≈ 4.51 µM) in test [7]. In addition, the MIC in test [8] worked out at 8 µg/mL (≈ 4.51 µM); against Entercoccus faecium 180, 1 µg/mL (≈ 0.563 µM); in test [9], 4 µg/mL (≈ 2.25 µM); in test [10], 0.5 µg/mL (≈ 0.282 µM); in test [11], 2 µg/mL (≈ 1.13 µM); in test [12], 4 µg/mL (≈ 2.25 µM). Moreover, the MIC in test [13] is at most 0.06 µg/mL; in test [14], at most 0.06 µg/mL; in [15], at most 0.06 µg/mL; in test [16], 0.5 µg/mL (≈ 0.282 µM); in test [17], 0.5 µg/mL (≈ 0.282 µM).

Take `CNC(CC(C)C)C(=O)NC1C(=O)NC(CC(N)=O)C(=O)NC2C(=O)NC3C(=O)NC(C(=O)NC(C(=O)O)c4cc(O)cc(O)c4-c4cc3ccc4O)C(OC3CC(C)(N)C(O)C(C)O3)c3ccc(c(Cl)c3)Oc3cc2cc(c3OC2OC(CO)C(O)C(O)C2OC2CC(C)(NCc3ccc(Oc4ccccc4[N+](=O)[O-])cc3)C(O)C(C)O2)Oc2ccc(cc2Cl)C1O` (centres unmarked) [Compound 70]: the “mean geometric MIC, Vancomycin Resistant Strains” value in [1] was 2.0 µg/mL. Moreover, the “mean geometric MIC, Vancomycin Sensitive Strains” value in [2] was determined as 0.092 µg/mL. In addition, the MIC in test [3] was at most 0.06 µg/mL; in test [4] it was at most 0.06 µg/mL; in [6], 0.25 µg/mL (≈ 0.137 µM); with Entercoccus faecium 2041, at most 0.06 µg/mL; in test [7] it was 2 µg/mL (≈ 1.1 µM); in [8], 16 µg/mL (≈ 8.79 µM). In addition, the MIC was 0.5 µg/mL (≈ 0.275 µM) against Entercoccus faecium 180; 2 µg/mL (≈ 1.1 µM) in test [18]; 2 µg/mL (≈ 1.1 µM) in [9]; at most 0.06 µg/mL in [10]; at most 0.06 µg/mL in test [11]; at most 0.06 µg/mL in the test on Entercoccus faecium 276. Moreover, the MIC was at most 0.06 µg/mL in test [19]; 0.5 µg/mL (≈ 0.275 µM) in [12]; at most 0.06 µg/mL in test [13]; at most 0.06 µg/mL in test [14]; at most 0.06 µg/mL in [17].

Regarding `CNC(CC(C)C)C(=O)NC1C(=O)NC(CC(N)=O)C(=O)NC2C(=O)NC3C(=O)NC(C(=O)NC(C(=O)O)c4cc(O)cc(O)c4-c4cc3ccc4O)C(OC3CC(C)(N)C(O)C(C)O3)c3ccc(c(Cl)c3)Oc3cc2cc(c3OC2OC(CO)C(O)C(O)C2OC2CC(C)(NCc3ccc(I)s3)C(O)C(C)O2)Oc2ccc(cc2Cl)C1O` (centres unmarked) [Compound 74], the “mean geometric MIC, Vancomycin Resistant Strains” value in test [1] amounted to 11 µg/mL. Also, the MIC in [3] is 1 µg/mL (≈ 0.551 µM); in [4], 0 µg/mL; in test [5], at most 0.06 µg/mL; in [6], 0.5 µg/mL (≈ 0.276 µM); against Entercoccus faecium 2041 it was at most 0.06 µg/mL; in test [7], 4 µg/mL (≈ 2.2 µM). The MIC in test [8] was 0.5 µg/mL (≈ 0.276 µM); in the test with Entercoccus faecium 180, 0.5 µg/mL (≈ 0.276 µM); in [18], at most 0.06 µg/mL; in test [9], 4 µg/mL (≈ 2.2 µM); in test [10] it was at most 0.06 µg/mL; in test [11] it was at most 0.06 µg/mL. Further, the MIC is at most 0.06 µg/mL in test [19]; 1 µg/mL (≈ 0.551 µM) in [12]; at most 0.06 µg/mL in test [13]; at most 0.06 µg/mL in test [14]; at most 0.06 µg/mL in test [15]; 4 µg/mL (≈ 2.2 µM) in test [16]. Moreover, the MIC in [17] is at most 0.06 µg/mL.

Regarding `CNC(CC(C)C)C(=O)NC1C(=O)NC(CC(N)=O)C(=O)NC2C(=O)NC3C(=O)NC(C(=O)NC(C(=O)O)c4cc(O)cc(O)c4-c4cc3ccc4O)C(OC3CC(C)(N)C(O)C(C)O3)c3ccc(c(Cl)c3)Oc3cc2cc(c3OC2OC(CO)C(O)C(O)C2OC2CC(C)(NCc3ccc(OCCOCCCl)cc3)C(O)C(C)O2)Oc2ccc(cc2Cl)C1O` (centres unmarked) [Compound 75], in test [1], the “mean geometric MIC, Vancomycin Resistant Strains” value came out at 16 µg/mL. Further, the “mean geometric MIC, Vancomycin Sensitive Strains” value in test [2] turned out to be 0.50 µg/mL. Besides, the MIC in test [3] was 0.5 µg/mL (≈ 0.277 µM); in [4], 0 µg/mL; in test [5], at most 0.06 µg/mL; in test [6] it was 0.5 µg/mL (≈ 0.277 µM); in the test on Entercoccus faecium 2041, at most 0.06 µg/mL; in test [7], 2 µg/mL (≈ 1.11 µM). Moreover, the MIC in test [8] was 2 µg/mL (≈ 1.11 µM); in the test on Entercoccus faecium 180, 0.5 µg/mL (≈ 0.277 µM); in test [18] it was 4 µg/mL (≈ 2.22 µM); in test [9] it was 4 µg/mL (≈ 2.22 µM); in test [10], at most 0.06 µg/mL; in test [11], 2 µg/mL (≈ 1.11 µM). In addition, the MIC was at most 0.06 µg/mL with Entercoccus faecium 276; at most 0.06 µg/mL in [19]; 1 µg/mL (≈ 0.554 µM) in [12]; at most 0.06 µg/mL in test [13]; at most 0.06 µg/mL in [14]; at most 0.06 µg/mL in test [15]. For the same molecule, the MIC is 2 µg/mL (≈ 1.11 µM) in [16] and at most 0.06 µg/mL in [17].

Regarding `CNC(CC(C)C)C(=O)NC1C(=O)NC(CC(N)=O)C(=O)NC2C(=O)NC3C(=O)NC(C(=O)NC(C(=O)O)c4cc(O)cc(O)c4-c4cc3ccc4O)C(O)c3ccc(c(Cl)c3)Oc3cc2cc(c3OC2OC(CO)C(O)C(O)C2OC2CC(C)(NCc3ccc(-c4ccccc4)cc3)C(O)C(C)O2)Oc2ccc(cc2Cl)C1O` (centres unmarked) [Compound 181], the “mean geometric MIC, Vancomycin Resistant Strains” value in test [1] is 8.0 µg/mL. Besides, the “mean geometric MIC, Vancomycin Sensitive Strains” value in test [2] came to 0.060 µg/mL. The MIC in test [3] is at most 0.06 µg/mL; in test [4], at most 0.06 µg/mL; in test [5] it was at most 0.06 µg/mL; in [7] it was 0.25 µg/mL (≈ 0.155 µM); in test [8], 32 µg/mL (≈ 19.8 µM); against Entercoccus faecium 180, 4 µg/mL (≈ 2.48 µM). Further, the MIC in test [18] was at most 0.06 µg/mL; in test [9], 1 µg/mL (≈ 0.619 µM); in [10] it was at most 0.06 µg/mL; in test [11], at most 0.06 µg/mL; in the test with Entercoccus faecium 276 it was 2 µg/mL (≈ 1.24 µM); in test [19], at most 0.06 µg/mL. Also, the MIC in [12], in test [13], in [14], in test [15], in test [16] and in test [17] was at most 0.06 µg/mL each time.

Turning to `CNC(CC(C)C)C(=O)NC1C(=O)NC(CC(N)=O)C(=O)NC2C(=O)NC3C(=O)NC(C(=O)NC(C(=O)O)c4cc(O)cc(O)c4-c4cc3ccc4O)C(OC3CC(C)(N)C(O)C(C)O3)c3ccc(c(Cl)c3)Oc3cc2cc(c3OC2OC(CO)C(O)C(O)C2OC2CC(C)(NCc3ccc(-c4ccccc4C)c(C)c3)C(O)C(C)O2)Oc2ccc(cc2Cl)C1O` (centres unmarked) [Compound 237], in [1], the “mean geometric MIC, Vancomycin Resistant Strains” value is 1.0 µg/mL. The “mean geometric MIC, Vancomycin Sensitive Strains” value in [2] stood at 0.048 µg/mL. The MIC was at most 0.06 µg/mL in [5]; 0.5 µg/mL (≈ 0.28 µM) in [6]; 0.125 µg/mL (≈ 0.07 µM) with Entercoccus faecium 2041; 1 µg/mL (≈ 0.56 µM) in [7]; 8 µg/mL (≈ 4.48 µM) in test [8]; 1 µg/mL (≈ 0.56 µM) in test [18]. Also, the MIC in [9] worked out at 1 µg/mL (≈ 0.56 µM); in test [10], 1 µg/mL (≈ 0.56 µM); in test [11] it was 1 µg/mL (≈ 0.56 µM); in the test on Entercoccus faecium 276 it was 1 µg/mL (≈ 0.56 µM); in [19] it was 0.5 µg/mL (≈ 0.28 µM); in test [12], 1 µg/mL (≈ 0.56 µM). The MIC in test [13] was at most 0.06 µg/mL; in test [14] it was at most 0.06 µg/mL; in test [15], at most 0.06 µg/mL; in test [16], 2 µg/mL (≈ 1.12 µM); in [17], 0.5 µg/mL (≈ 0.28 µM).
